Test results reported in patent EP3088535A1 (priority 2015, dated 2016).

How the values were obtained:
[1] = target: Reverse Transcriptase from Patient #C infected by HIV-1 (Human immunodeficiency virus type 1, UniProt P04585)
Experimental: (§1) Transformed cells (that grew in TRP lacking media) were incubated for 16h with shacking in 13 mL rich medium (Yeast extract Peptone Dextrose) at a final cell density 0,06 OD / mL.
(§2) 13 mL cell culture supernatant was collected after centrifugation at 1500 rpm for 5min and kept as the source for in vitro Reverse Transcriptase resistance analysis.
(§3) HIV Reverse Transcriptase resistance to reverse transcriptase inhibitors was analyzed as follows.
(§4) In a final volume of 150µl, 120µl of transformed cell's medium were incubated in 56 mM Tris-HCl, 56 mM KCl and 9 mM MgCl2 with: • 1.76µg of MS2 RNA (SEQ ID NO: 20), and • 0.059 pmoles of 5'biotinylated primer of SEQ ID NO: 19, and • dNTP mixture (1.5pmoles of each one; dATP, dGTP, dCTP, and dTTP), and • 0.19 pmoles of DIG (digoxigenin) modified dUTP, and • 30 µl of one of each concentration out of eight serial one to one dilutions of Reverse Transcriptase inhibitors in water (in this way the inhibitor was further diluted […]).
(§5) The Reverse Transcriptase inhibitor's one to one dilution started at the following concentrations:
(§6) The mixture reaction was incubated at 37°C for an overnight period (16 - 20 hours).
(§7) At the end of the incubation, each reaction mixture was transferred to a streptavidin coated flat bottom well for ELISA based RNA retro-transcribed DNA determination.
(§8) Wells were washed three times with 200µl of wash buffer (0.1%BSA and 0.05% Tween in PBS) before 30min incubation at room temperature with 100µl of a 1:1000 dilution of Peroxidase -conjugated monoclonal mouse anti-DIG (from Jackson Immunosearch ref N°JIR 200-032-156) in wash buffer.

[2] = target: Reverse Transcriptase from Patient #B infected by HIV-1 (Human immunodeficiency virus type 1, UniProt P04585)
Experimental: as §1, §2, §3, §4, §5, §6, §7, §8

[3] = target: Reverse Transcriptase from Patient #A infected by HIV-1 (Human immunodeficiency virus type 1, UniProt P04585)
Experimental: as §1, §2, §3, §4, §5, §6, §7, §8

Measured: sensitivity of RT to inhibitor compared with the reference isolate HIV-1 IIIB

Cc1ccnc2c1NC(=O)c1cccnc1N2C1CC1 [NVP, nevirapine]
more sensitive: all assays above
